The test system of the test is mussel mantle edge. The test can be described thus: Ex-vivo incubation of mantle edge fragments, calcium quantification by MP-AES. Also noted: species or system Mytilus galloprovincialis. Particulars: 4 h at 19-20 °C; CALCIIa 10 μM or ouabain 2 mM alone; MP-AES at 393.366 nm; mean ± SEM; control 400.67 ±13.83 ppm; SEM. The method, then:
Figure 7 Effect of the mussel calcitonin-like peptide on (A) calcium (ppm) concentration in the mantle edge and (B) calcium uptake by mantle cells of the Mediterranean mussel. (A) The quantity of calcium (ppm) present in the mantle edge after mussel CALCIIa peptide incubation was measured using a Microwave Plasma-Atomic Emission Spectrometer (MP-AES, Agilent) at 393.366 nm. A standard curve for calcium was performed before analysing the samples. In vitro mantle assays with CALCIIa peptide and with ouabain and control (culture medium and mantle) were repeated on at least 3 independent occasions. For each assay at least ten replicates were performed and the mantle edge distal to the umbo was used (one mantle fragment per replica). Prism GraphPad v5 software was used to assess the significance of differences between the groups using a One-way Anova and Tukey’s multiple comparison test. […] C - control (no peptide or ouabain); P - peptide (10 μM); O - ouabain (2 mM), OP - ouabain (2 mM) and peptide (10 μM); PreOP - pre -stimulation for 1 hour with the peptide followed by 4 hours incubation with OP. (B) Digital photographs of the mussel mantle cells in the presence (CALCIIa, 10 μM) or absence (control) of the mussel CALCIIa peptide. Calcium ions were stained with 50 mM of Calcein (green) and cell nuclei (blue) with DAPI (Acros Organics). An increase in cellular fluorescence represents an increase in calcium uptake. Fluorescence of the CALCIIa peptide stimulated cells was 1.9 times higher than the control. The average mantle cell size was 3–4 μm and fluorescent images were taken using a Leica DM IL microscope coupled to a Visicam HDMI 6 digital camera and photographs were analysed using ImageJ software (v. 1.52a) to calculate the fluorescence intensity and for image overlay. The scale bar is indicated.
The posterior mantle edge region of the Mediterranean mussel was collected and washed in culture medium. The composition of the culture medium was as described in[91] […]

Bridge positions count the residues as written; N and C are the ends.

Turning to “H-CTWGGGMSDEMCSTVDIDEIQRSFQVIHDRNSP-NH2 (disulfide 1-12 (inferred)) [CALCIIa, Mediterranean mussel calcitonin-like mature peptide, 33 aa, synthesized with disulphide bond and C-terminal amidation]”, the “Calcium in the mantle edge after incubation” value came to 513.38 ± 24.33 ppm.

These data come from paper PMC7200681, “The calcitonin-like system is an ancient regulatory system of biomineralization” (Scientific Reports, 2020).
